# Laboratory results: US7972815B2, “Method of producing sugar chain using human G4 polypeptide” (Kyowa Hakko Kirin Co., Ltd., priority 1999, dated 2011)
# How the values were obtained:
# Format in all cases: biochemical
# [1] = target: T1, β1,3-N-acetylglucosaminyl transferase (G3) (Homo sapiens, UniProt Q9NY97); assay: Substrate specificity of G3 with unlabeled oligosaccharides; details: 2 hours; for Relative activity (%) G3: unlabeled substrate, 37° C., activity for LNnT defined as 100%
# T1 construct: made in house; host or cells: Sf21 insect cells infected with recombinant baculovirus from pVL1393-F2G3
# T1 sequence (Q9NY97 31-397): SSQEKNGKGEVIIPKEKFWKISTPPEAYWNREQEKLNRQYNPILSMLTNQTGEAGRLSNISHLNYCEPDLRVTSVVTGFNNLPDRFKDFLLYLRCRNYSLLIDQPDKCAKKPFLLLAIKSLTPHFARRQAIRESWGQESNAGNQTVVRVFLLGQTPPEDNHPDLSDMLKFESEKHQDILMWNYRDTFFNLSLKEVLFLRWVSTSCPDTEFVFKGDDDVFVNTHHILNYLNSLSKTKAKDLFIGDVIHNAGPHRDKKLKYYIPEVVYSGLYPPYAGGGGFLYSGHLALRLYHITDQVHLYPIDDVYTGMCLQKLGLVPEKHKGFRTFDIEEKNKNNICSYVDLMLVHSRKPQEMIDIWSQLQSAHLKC
# Procedure: (§1) The reaction using the glycosyltransferase was carried out as follows. The reaction was carried out at 37° C. for 16 hours in 40 μl of an assay solution [50 mmol/l MOPS (pH 7.5), 5 mmol/l UDP-GlcNAc (SIGMA), 5 mmol/l MnCl2, […] and 10 μl of the above eluate]. Next, the reaction solution was treated at 100° C. for 5 minutes and then centrifuged at 10,000×g for 20 minutes to obtain the supernatant, and a portion thereof was analyzed using HPAE/PAD (High Performance Anion Pulsed Amperometoric Detection; manufactured by DIONEX). The specific method was carried out in the usual way [Anal. Biochem., 189, 151 (1990), J. Biol. Chem., 273, 433 (1998)].
# (§2) As substrates, the following unlabeled oligosaccharides were used: lactose (Galβ1-4Glc), N-acetyllactosamine (Galβ1-4GlcNAc, hereinafter referred to as “LacNAc” in some cases), LNnT, LNT and lacto-N-neohexaose (Galβ1-4GlcNACβ1-3Galβ1-4GlcNAcβ1-3Galβ1-4Glc, hereinafter referred to as “LNnH”).
# (§3) For each substrate, the reaction was carried using the assay solution with or without UDP-GlcNAc (sugar donor), and then HPLC was carried out and peaks appeared only in the assay solution containing UDP-GlcNAc were defined as products.
# (§4) In identifying the product, coincidence of its elution time with that of a standard sugar chain was used as the index. As the standard sugar chains, GlcNAcβ1-3Galβ1-4Glc, GlcNAcβ1-3Galβ1-4GlcNAc and GlcNAcβ1-3Galβ1-4GlcNAcβ1-3Galβ1-4Glc were used.
# Substrate specificity of the FLAG peptide-fused G3 polypeptide was examined by the method shown in Example 11(2). The enzyme reaction was carried out at 37° C. for 2 hours.
# [2] = target: T2, β1,3-N-acetylglucosaminyl transferase (G7) (Homo sapiens, UniProt Q9C0J1); assay: Substrate specificity of G7 with pyridylaminated oligosaccharides; details: 16 hours; for Relative activity (%): pyridylaminated substrate, 37° C., activity for LNnT defined as 100%
# T2 construct: made in house; host or cells: Sf21 insect cells infected with recombinant baculovirus from pVL1393-F2G7
# Procedure: (§5) The method shown in Example 8 was used as the activity measuring method. Specifically, after the reaction at 37° C. for 14.5 hours in 30 μl of an assay solution [200 mmol/l of MOPS (pH 7.5), 20 mmol/l of UDP-GlcNAc (SIGMA), 20 mmol/l of MnCl2, 50 μmol/l of pyridylaminated sugar chain substrate and 15 μl of the above eluate], products were detected by HPLC. As substrates, LNnT, lacto-N-tetraose (Galβ1-3GlcNAcβ1-3Galβ1-4Glc, hereinafter referred to as “LNT”), lacto-N-fucopentaose II (Galβ1-3(Fucα1-4)GlcNAcβ1-3Galβ1-4Glc, hereinafter referred to as “LNFP-II”), lacto-N-fucopentaose III (Galβ1-4(Fucα1-3)GlcNAcβ1-3Galβ1-4Glc, hereinafter referred to as “LNFP-III”), lacto-N-fucopentaose V (Galβ1-3GlcNAcβ1-3Galβ1-4(Fucα1-3)Glc, hereinafter referred to as “LNFP-V”) and lacto-N-difucohexaose II (Galβ1-3(Fucα1-4)GlcNAcβ1-3Galβ1-4(Fucα1-3)Glc, hereinafter referred to as “LNDFH-II”) (all manufactured by Oxford Glycosystems) were used after fluorescently labeling them with aminopyridine. Fluorescence labeling of these substrates were carried out in accordance with the usual method [Agric. Biol. Chem., 54, 2169 (1990)].
# as §3
# (§6) The assay solution after completion of the reaction was treated at 100° C. for 5 minutes and then centrifuged at 10,000×g for 5 minutes, and a portion (5 μl) of the thus obtained supernatant was applied to HPLC.
# (§7) The HPLC was carried out by using TSK-gel ODS-80Ts column (4.6×300 mm; Tosoh); 0.02 mol/l ammonium acetate buffer (pH 4.0) was used as the eluate at an elution temperature of 50° C. and at a flow rate of 0.5 ml/min.
# (§8) Products were detected by using a fluorescence spectrum photometer FP-920 (JASCO Corporation) (excitation wavelength 320 nm, radiation wavelength 400 nm).
# Examination of the substrate specificity of a β1,3-N-acetylglucosaminyl transferase (G7) was carried out using the FLAG peptide-fused G7 polypeptide purified in Example 17.
# Substrate specificity of the FLAG peptide-fused G7 polypeptide was examined by the method shown in Example 11(1). The reaction was carried out at 37° C. for 16 hours.
# [3] = target: T3, β1,3-N-acetylglucosaminyl transferase (G4) (Homo sapiens, UniProt Q9Y2A9, R328H); assay: Substrate specificity of G4 with pyridylaminated oligosaccharides; details: for Relative activity (%): pyridylaminated substrate 50 μmol/l, 37° C., 14.5 hours, activity on LNnT defined as 100%
# T3 construct: made in house; host or cells: Sf21 insect cells infected with recombinant baculovirus from pVL1393-F2G4
# T3 sequence (Q9Y2A9 38-372 R328H): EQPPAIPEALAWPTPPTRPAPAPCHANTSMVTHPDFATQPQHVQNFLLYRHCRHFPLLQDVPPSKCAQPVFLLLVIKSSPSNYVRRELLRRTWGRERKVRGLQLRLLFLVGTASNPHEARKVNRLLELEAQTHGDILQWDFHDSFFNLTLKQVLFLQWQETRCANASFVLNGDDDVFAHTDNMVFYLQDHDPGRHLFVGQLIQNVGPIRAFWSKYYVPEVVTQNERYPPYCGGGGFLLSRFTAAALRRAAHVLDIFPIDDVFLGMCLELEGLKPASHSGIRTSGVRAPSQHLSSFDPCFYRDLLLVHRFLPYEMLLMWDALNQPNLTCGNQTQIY
# Procedure: Examination on the substrate specificity of a β1,3-N-acetylglucosaminyl transferase (G4) was carried out by using the FLAG peptide-fused G4 polypeptide produced as a secreted form in Example 10.
# as §5, §3, §6, §7, §8
# [4] = target: T2, β1,3-N-acetylglucosaminyl transferase (G7); assay: Substrate specificity of G7 with unlabeled oligosaccharides; details: 15.5 hours; for Relative activity (%) G7: unlabeled substrate, 37° C., activity for LNnT defined as 100%
# Procedure: as §1, §2, §3, §4
# Substrate specificity of the FLAG peptide-fused G7 polypeptide was examined using the method shown in Example 11(2). The enzyme reaction was carried out at 37° C. for 15.5 hours.
# [5] = pyridylaminated LNnT as substrate
# T2 sequence (Q9C0J1 56-378): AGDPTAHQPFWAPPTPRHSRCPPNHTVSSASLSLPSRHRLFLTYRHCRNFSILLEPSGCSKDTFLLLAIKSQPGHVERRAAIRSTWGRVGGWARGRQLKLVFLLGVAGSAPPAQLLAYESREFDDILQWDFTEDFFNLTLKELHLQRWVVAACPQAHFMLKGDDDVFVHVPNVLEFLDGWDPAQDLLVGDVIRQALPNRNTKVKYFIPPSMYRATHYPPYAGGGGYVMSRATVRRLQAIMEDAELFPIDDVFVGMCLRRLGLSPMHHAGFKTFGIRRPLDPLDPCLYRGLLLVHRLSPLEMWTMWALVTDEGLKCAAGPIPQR
Compound,conversion ratio of a substrate into the product ([1]; unlabeled LNnT as substrate) [%],Relative activity (%) G3 [1] [%],"conversion efficiency of the substrate into the product [2, 5] [%]",Relative activity (%) [2] [%],"conversion ratio of the substrate into the product [3, 5] [%]",Relative activity (%) [3] [%],conversion efficiency of the substrate into the product ([4]; unlabeled LNnT as substrate) [%],Relative activity (%) G7 [4] [%]
"CC(=O)N[C@H]1[C@H](O[C@H]2[C@@H](O)[C@@H](CO)O[C@@H](O[C@H]3[C@H](O)[C@@H](O)C(O)O[C@@H]3CO)[C@@H]2O)O[C@H](CO)[C@@H](O[C@@H]2O[C@H](CO)[C@H](O)[C@H](O)[C@H]2O)[C@@H]1O (mixture of isomers) [LNnT, lacto-N-neotetraose]",4.6,100,3.76,100,12.9,100,3.07,100
"CC(=O)N[C@H]1[C@H](O[C@H]2[C@@H](O)[C@@H](CO)O[C@@H](O[C@H]3[C@H](O)[C@@H](O)C(O)O[C@@H]3CO)[C@@H]2O)O[C@H](CO)[C@@H](O)[C@@H]1O[C@@H]1O[C@H](CO)[C@H](O)[C@H](O)[C@H]1O (stereo partly drawn) [LNT, lacto-N-tetraose]",,27,,7.6,,84.5,,0
